Results as given in patent publication US5688938A, “Calcium receptor-active molecules” (priority 1995, dated 1997).

Tests used:
[1] = target: T1, parathyroid cell calcium receptor (Bos taurus, UniProt P35384); assay: cell-based; assay type: cell-based
T1 sequence (P35384 21-1085 limits assumed): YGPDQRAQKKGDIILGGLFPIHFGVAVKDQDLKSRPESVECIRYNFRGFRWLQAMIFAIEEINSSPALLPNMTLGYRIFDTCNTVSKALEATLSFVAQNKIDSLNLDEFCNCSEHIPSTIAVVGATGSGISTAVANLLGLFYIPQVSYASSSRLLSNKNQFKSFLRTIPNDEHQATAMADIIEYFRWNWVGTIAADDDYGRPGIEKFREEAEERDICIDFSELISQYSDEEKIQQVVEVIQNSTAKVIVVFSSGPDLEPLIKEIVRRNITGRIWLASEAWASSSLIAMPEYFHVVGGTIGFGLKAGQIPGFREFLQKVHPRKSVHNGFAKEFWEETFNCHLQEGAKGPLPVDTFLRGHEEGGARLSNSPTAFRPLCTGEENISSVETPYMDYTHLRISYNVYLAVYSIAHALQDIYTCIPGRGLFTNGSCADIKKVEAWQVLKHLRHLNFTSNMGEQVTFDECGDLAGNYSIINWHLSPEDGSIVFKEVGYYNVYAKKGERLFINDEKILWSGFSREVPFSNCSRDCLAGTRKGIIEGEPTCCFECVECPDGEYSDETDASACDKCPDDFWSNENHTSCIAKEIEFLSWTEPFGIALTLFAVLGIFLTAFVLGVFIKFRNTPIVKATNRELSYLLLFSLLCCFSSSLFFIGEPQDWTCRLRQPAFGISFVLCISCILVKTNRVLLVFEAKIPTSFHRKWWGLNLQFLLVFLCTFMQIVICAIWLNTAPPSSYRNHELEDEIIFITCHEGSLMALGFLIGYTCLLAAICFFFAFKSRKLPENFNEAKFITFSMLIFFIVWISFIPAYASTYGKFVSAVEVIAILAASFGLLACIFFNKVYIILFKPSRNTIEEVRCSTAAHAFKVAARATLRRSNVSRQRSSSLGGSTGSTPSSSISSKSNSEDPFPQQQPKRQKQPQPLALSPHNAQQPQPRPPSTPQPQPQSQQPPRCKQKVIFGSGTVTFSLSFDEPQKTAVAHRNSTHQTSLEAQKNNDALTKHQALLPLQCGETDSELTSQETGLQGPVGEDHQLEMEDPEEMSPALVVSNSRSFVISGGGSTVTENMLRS
Description: For example,.bovine parathyroid cells loaded with fura-2 are initially suspended in buffer containing 0.5 mM CaCl2. A test substance is added to the cuvette in a small volume (5-15 μl) and changes in the fluorescence signal are measured. Cumulative increases in the concentration of the test substance are made in the cuvette until some predetermined concentration is achieved or no further changes in fluorescence are noted.
This section describes procedures used to obtain and treat parathyroid cells from calves and humans. […] Human parathyroid glands, were obtained from patients undergoing surgical removal of parathyroid tissue for primary or uremic hyperparathyroidism (uremic HPT), and were treated similarly to bovine tissue.
Glands were trimmed of excess fat and connective tissue and then minced with fine scissors into cubes approximately 2-3 mm on a side. Dissociated parathyroid cells were prepared by collagenase digestion and then purified by centrifugation in Percoll buffer. The resultant parathyroid cell preparation was essentially devoid of red blood cells, adipocytes, and capillary tissue as assessed by phase contrast microscopy and Sudan black B staining. Dissociated and purified parathyroid cells were present as small clusters containing 5 to 20 cells.
The cells were then transferred to plastic flasks (75 or 150 cm^2 ; Falcon) and incubated overnight at 37° C. in a humid atmosphere of 5% CO2. No serum is added to these overnight cultures, since its presence allows the cells to attach to the plastic, undergo proliferation, and dedifferentiate. Cells cultured under the above conditions were readily removed from the flasks by decanting, and show the same viability as freshly prepared cells.
The cells were then pelleted, resuspended in the same buffer, but lacking the ester, and incubated a further 15 minutes at 37° C. The cells were subsequently washed twice with PCB containing 0.5 mM CaCl2 and 0.5% BSA and maintained at room temperature (about 20° C.). Immediately before use, the cells were diluted five-fold with prewarmed 0.5mM CaCl2 -PCB to obtain a final BSA concentration of 0.1%. The concentration of cells in the cuvette used for fluorescence recording was 1-2×10^6 /ml.
The fluorescence of indicator-loaded cells was measured at 37° C. in a spectrofluorimeter (Biomedical Instrumentation Group, University of Pennsylvania, Philadelphia, Pa.) equipped with a thermostated cuvette holder and magnetic stirrer using excitation and emission wavelengths of 340 and 510 nm, respectively. […] Leakage of dye is dependent on temperature and most occurs within the first 2 minutes after warming the cells in the cuvette. Dye leakage increases only very slowly thereafter. To correct the calibration for dye leakage, cells were placed in the cuvette and stirred at 37° C. for 2-3 minutes. The cell suspension was then removed, the cells pelleted, and the supernatant returned to a clean cuvette. […] This estimate was subtracted from the apparent Fmin.
Dissociated bovine parathyroid cells were purified on gradients of Percoll and cultured overnight in serum-free medium. […] That is,

[2] = target: T2, human parathyroid cell calcium receptor (Homo sapiens, UniProt P41180); assay: Cl^- current in Xenopus oocytes expressing cloned human parathyroid calcium receptor; assay type: cell-based; conditions: for Cl^- current: 0.3 mM extracellular Ca^2+, NPS 019 3 to 30 μM
T2 construct: cRNA injected in Xenopus oocytes
T2 sequence (P41180 20-1078 R990G/E1011Q): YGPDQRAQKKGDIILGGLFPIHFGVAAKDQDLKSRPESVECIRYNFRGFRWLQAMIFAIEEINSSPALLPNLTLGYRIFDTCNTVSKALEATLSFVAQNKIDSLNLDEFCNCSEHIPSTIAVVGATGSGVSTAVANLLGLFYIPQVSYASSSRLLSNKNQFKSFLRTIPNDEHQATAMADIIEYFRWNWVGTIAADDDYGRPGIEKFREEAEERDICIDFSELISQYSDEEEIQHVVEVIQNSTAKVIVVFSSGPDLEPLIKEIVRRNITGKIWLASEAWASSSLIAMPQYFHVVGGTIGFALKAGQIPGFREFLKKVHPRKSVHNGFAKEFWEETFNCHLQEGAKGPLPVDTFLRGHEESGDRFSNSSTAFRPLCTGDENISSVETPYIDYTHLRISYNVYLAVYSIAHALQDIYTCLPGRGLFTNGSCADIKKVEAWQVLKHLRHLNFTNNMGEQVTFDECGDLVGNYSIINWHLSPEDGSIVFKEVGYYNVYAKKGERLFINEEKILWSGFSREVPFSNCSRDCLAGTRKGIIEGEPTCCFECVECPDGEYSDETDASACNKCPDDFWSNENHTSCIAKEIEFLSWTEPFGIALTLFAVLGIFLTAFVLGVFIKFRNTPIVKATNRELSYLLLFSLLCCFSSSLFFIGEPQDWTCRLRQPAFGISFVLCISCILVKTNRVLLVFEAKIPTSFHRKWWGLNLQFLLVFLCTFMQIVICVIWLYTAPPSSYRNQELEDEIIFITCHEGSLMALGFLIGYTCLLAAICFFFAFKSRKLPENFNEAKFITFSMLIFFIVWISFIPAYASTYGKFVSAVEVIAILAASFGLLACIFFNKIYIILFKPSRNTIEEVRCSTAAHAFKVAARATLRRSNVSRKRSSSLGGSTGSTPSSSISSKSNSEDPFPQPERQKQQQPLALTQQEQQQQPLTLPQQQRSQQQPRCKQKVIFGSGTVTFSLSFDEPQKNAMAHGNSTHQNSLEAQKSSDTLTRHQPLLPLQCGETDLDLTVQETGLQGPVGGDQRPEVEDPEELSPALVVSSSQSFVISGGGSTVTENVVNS
Description: Representative cDNA inserts for both size classes were subcloned into the plasmid vector pBluescript SK. Linearization followed by in vitro transcription using T7 RNA polymerase produced cRNA transcripts. The cRNA transcripts were injected into Xenopus oocytes (150 ng/μl RNA; 50 nl/oocyte) for functional analysis. Following incubation periods of 2-4 days, the oocytes were assayed for the presence of functional calcium receptors. Both clone types gave rise to functional calcium receptors as assessed by the stimulation of calcium-activated chloride currents upon addition of appropriate calcium receptor agonists. […] Thus, both clones encode a functional, human parathyroid cell calcium receptor.
Xenopus oocytes were injected with pHuPCaR 5.2, the 5.2 Kb cDNA encoding a parathyroid cell calcium receptor derived from a human parathyroid cell adenoma. (See Example 27.) After two to three days, Cl^- currents were measured in the oocytes using a two-electrode voltage clamp.

bovine parathyroid cells = assay: PTH secretion from bovine parathyroid cells; assay type: cell-based
Description: In most experiments, cells loaded with fura-2 were also used in studies of PTH secretion.

human parathyroid cells = assay: PTH secretion from human parathyroid cells; assay type: cell-based
Description: PTH secretion was measured by first suspending cells in PCB containing 0.5 mM CaCl2 and 0.1% BSA.
For human cells, a commercially available radioimmunoassay kit (INS-PTH; Nichols Institute, Los Angeles, Calif.) which recognizes intact and N-terminal human PTH was used because GW-1 antibody recognizes human PTH poorly.

net positive charge = assay type: physicochemical
[3] = hypocalcemic response in thyroidectomized rats; assay type: in vivo, rat; conditions: 3 to 100 mg/kg p.o.
Description: In subsequent studies, rats received a thyroidectomy (parathyroid glands intact). This surgical procedure effectively removed the C-cells secreting calcitonin and therefore enabled the relative contributions of PTH and calcitonin to the hypocalcemic effect of this compound to be determined. […] The only difference was that the rate of onset of the hypocalcemic response was somewhat delayed in thyroidectomized animals. […] Stimulatory effects of this compound on calcitonin secretion increases the rate of onset, but not the extent, of hypocalcemia.

SMILES | EC50 ([1]; Table 6, bovine parathyroid cells, read-out: EC50 PARATHYROID) [µM] | Cl^- current response in absence of extracellular Ca^2+ [2] | Cl^- current [2] | inhibition of PTH secretion (bovine parathyroid cells) | inhibition of PTH secretion (human parathyroid cells) | Net (+) Charge (net positive charge; Table 1, at physiological pH) | net positive charge at pH 7.3 (net positive charge; pH 7.3) | [Ca^2+]i response in Ca^2+-free buffer ([1]; no extracellular Ca^2+, NPS R-467 30 μM) | activation of oocyte-expressed human receptor ([2]; pHuPCaR 5.2 and 4.0) | hypocalcemic response in thyroidectomized animals [3]
NCCCNCCCCNCCCNCCCNCCCNC(=O)Cc1c[nH]c2ccccc12 [NPS 019, reference compound] | 40 | persisted | evoked increases in the Cl^- current | – | – | – | – | – | – | –
NC[C@@H]1O[C@H](O[C@H]2[C@@H](O)[C@H](O[C@@H]3[C@@H](O)[C@H](N)C[C@H](N)[C@H]3O[C@H]3O[C@H](CN)[C@@H](O)[C@H](O)[C@H]3N)O[C@@H]2CO)[C@H](N)[C@@H](O)[C@@H]1O [Neomycin] | – | – | – | inhibited PTH secretion to the same extent as extracellular Ca^2+ | inhibited PTH secretion from human parathyroid cells | +6 | +6 | – | – | –
COc1cccc([C@@H](C)NCCCc2ccccc2Cl)c1 [NPS R-568, (R)-(+)-N-[3-(2-chlorophenyl)propyl]-α-methyl-3-methoxybenzylamine] | – | abolished | evoked increases in the Cl^- current | – | – | – | – | fails to evoke increases in [Ca^2+ ]i | activated the oocyte-expressed receptor at about the same concentrations | hypocalcemic response equal in magnitude to that produced in sham-operated animals
